# In ChEMBL document CHEMBL5465560, “Selectivity Literature for EUbOPEN Chemogenomic Library” (2024):
# Tests used:
# [1] = target: 5-hydroxytryptamine receptor 2B (Homo sapiens, UniProt P41595); test: Selectivity interaction (Panel of non-epigenetic targets (kinases, GPCRs, ion channels, and transporters, Eurofins) ) EUB0000271b HTR2B; conditions: at 1 µM
# [2] = target: T1, Mitogen-activated protein kinase kinase kinase 7 (Homo sapiens) (UniProt O43318); test: Selectivity interaction (KinomeScan (DiscoverX)) EUB0001079a MAP3K7; conditions: at 1 µM
# T1 sequence (whole entry): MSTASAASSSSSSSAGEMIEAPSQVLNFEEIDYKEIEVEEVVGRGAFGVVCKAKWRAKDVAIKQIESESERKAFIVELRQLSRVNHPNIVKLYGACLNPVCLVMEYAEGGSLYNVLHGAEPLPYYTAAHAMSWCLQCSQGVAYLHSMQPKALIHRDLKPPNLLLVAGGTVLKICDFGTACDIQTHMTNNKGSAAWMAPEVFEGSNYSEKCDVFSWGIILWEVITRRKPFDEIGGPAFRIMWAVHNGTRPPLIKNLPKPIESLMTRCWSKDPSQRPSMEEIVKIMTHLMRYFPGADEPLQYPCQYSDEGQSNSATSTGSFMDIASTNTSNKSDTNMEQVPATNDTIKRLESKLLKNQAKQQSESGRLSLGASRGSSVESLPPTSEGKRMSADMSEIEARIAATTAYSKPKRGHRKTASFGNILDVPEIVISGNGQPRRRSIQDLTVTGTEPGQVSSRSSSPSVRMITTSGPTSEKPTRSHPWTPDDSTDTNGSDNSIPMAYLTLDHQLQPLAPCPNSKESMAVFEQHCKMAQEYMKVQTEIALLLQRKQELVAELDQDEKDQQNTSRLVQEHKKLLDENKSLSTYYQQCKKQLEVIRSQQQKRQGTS
# [3] = target: T2, Tyrosine-protein kinase ABL1 (Homo sapiens, UniProt P00519); test: Selectivity interaction (ActivX KiNativ screen (ex vivo kinase selectivity in human PBMCs)) EUB0001619a ABL1; type: cell-based; conditions: PBMC, at 1 µM
# [4] = target: T3, Tyrosine-protein kinase JAK3 (Homo sapiens) (UniProt P52333); test: Selectivity interaction (Upstate Kinase Profiler service (Millipore)) EUB0000056c JAK3; conditions: at 1 µM
# T3 sequence (whole entry): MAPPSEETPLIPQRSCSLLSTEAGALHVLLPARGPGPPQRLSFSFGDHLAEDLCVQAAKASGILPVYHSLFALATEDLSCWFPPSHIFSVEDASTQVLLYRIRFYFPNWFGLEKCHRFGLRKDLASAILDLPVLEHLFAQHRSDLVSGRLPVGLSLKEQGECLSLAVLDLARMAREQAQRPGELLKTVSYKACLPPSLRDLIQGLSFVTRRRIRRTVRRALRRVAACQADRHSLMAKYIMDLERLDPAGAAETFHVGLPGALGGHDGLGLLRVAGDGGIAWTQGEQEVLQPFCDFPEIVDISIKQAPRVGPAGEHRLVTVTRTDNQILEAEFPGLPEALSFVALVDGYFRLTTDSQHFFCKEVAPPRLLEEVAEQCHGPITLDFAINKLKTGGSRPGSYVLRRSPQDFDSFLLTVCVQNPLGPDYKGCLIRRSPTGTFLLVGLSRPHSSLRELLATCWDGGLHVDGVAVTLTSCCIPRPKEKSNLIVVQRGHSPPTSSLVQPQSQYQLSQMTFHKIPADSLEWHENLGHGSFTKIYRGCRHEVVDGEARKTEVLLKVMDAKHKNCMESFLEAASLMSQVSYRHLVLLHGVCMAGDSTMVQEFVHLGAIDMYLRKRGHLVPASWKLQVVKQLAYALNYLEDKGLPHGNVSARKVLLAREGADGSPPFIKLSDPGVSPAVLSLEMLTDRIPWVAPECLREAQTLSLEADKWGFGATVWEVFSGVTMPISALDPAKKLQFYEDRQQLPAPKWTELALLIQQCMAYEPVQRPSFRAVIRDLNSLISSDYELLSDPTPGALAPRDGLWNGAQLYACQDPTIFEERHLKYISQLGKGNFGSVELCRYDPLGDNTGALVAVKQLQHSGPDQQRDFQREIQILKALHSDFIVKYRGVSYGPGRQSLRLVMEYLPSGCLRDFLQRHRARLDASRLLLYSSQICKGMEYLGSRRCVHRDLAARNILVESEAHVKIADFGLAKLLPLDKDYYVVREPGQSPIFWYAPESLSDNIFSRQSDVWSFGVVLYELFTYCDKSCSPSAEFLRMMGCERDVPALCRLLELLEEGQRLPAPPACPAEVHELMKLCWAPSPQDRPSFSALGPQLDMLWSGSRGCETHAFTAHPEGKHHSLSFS
# [5] = target: T2, Tyrosine-protein kinase ABL1; test: Selectivity interaction (Kinase panel (KiNativ target engagement assay in Jurkat cells)) EUB0001635a ABL1; type: cell-based; conditions: Selectivity number of off-targets 0.0, Selectivity number of targets 233.0, Source Knowledge https://www.sciencedirect.com/science/article/pii/S2451945619300674?via%3Dihub, at 1 µM
# [6] = target: Mitogen-activated protein kinase 7 (Homo sapiens) (UniProt Q13164); test: Selectivity interaction (Kinase panel (KiNativ target engagement assay in Jurkat cells)) EUB0001635a MAPK7; type: cell-based; conditions: Selectivity number of off-targets 0.0, Selectivity number of targets 233.0, Source Knowledge https://www.sciencedirect.com/science/article/pii/S2451945619300674?via%3Dihub, at 1 µM
# [7] = target: STE20/SPS1-related proline-alanine-rich protein kinase (Homo sapiens) (UniProt Q9UEW8); test: Selectivity interaction (Kinome Scan (DiscoverX)) EUB0000229b STK39; conditions: at 10 µM
# [8] = target: Insulin-like growth factor 1 receptor (Homo sapiens, UniProt P08069); test: Selectivity interaction (Kinase screening (Nanosyn)) EUB0000604a IGF1R
# Insulin-like growth factor 1 receptor, sequence (P08069 31-736 limits assumed): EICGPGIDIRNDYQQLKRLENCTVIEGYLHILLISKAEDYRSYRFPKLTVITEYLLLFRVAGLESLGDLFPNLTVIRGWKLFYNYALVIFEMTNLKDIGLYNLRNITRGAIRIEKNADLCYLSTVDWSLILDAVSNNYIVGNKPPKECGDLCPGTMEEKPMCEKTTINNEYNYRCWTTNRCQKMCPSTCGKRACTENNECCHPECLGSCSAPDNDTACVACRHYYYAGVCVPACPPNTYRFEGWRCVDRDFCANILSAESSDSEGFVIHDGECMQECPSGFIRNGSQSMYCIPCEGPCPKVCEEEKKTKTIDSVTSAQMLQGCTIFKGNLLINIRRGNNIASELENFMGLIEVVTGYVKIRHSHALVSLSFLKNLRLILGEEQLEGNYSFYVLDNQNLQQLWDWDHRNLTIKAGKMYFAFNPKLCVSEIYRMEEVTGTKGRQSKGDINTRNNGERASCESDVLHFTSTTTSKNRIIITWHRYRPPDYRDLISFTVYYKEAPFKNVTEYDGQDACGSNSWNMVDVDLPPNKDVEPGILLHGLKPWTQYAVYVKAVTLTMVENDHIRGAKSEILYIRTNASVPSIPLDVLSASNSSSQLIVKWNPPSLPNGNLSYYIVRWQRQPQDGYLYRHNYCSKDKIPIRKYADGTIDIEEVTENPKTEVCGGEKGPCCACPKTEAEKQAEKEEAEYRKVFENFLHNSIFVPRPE
# Insulin-like growth factor 1 receptor, sequence (P08069 741-1367 limits assumed): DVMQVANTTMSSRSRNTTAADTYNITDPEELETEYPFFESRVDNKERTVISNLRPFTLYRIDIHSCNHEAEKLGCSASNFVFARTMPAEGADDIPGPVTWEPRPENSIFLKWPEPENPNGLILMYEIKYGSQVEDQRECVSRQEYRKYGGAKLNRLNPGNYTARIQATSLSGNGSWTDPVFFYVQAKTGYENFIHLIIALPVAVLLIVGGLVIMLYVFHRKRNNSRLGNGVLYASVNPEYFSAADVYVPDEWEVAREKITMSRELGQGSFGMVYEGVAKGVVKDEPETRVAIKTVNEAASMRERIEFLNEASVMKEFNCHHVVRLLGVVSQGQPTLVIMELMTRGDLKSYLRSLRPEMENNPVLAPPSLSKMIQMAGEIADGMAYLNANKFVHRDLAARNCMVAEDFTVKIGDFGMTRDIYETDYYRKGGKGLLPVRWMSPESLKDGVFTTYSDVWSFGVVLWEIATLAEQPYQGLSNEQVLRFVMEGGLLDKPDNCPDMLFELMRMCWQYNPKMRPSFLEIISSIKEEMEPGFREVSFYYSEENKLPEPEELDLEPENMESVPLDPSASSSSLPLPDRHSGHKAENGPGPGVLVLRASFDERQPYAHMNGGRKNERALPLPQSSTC
# T2 sequence (P00519 whole entry): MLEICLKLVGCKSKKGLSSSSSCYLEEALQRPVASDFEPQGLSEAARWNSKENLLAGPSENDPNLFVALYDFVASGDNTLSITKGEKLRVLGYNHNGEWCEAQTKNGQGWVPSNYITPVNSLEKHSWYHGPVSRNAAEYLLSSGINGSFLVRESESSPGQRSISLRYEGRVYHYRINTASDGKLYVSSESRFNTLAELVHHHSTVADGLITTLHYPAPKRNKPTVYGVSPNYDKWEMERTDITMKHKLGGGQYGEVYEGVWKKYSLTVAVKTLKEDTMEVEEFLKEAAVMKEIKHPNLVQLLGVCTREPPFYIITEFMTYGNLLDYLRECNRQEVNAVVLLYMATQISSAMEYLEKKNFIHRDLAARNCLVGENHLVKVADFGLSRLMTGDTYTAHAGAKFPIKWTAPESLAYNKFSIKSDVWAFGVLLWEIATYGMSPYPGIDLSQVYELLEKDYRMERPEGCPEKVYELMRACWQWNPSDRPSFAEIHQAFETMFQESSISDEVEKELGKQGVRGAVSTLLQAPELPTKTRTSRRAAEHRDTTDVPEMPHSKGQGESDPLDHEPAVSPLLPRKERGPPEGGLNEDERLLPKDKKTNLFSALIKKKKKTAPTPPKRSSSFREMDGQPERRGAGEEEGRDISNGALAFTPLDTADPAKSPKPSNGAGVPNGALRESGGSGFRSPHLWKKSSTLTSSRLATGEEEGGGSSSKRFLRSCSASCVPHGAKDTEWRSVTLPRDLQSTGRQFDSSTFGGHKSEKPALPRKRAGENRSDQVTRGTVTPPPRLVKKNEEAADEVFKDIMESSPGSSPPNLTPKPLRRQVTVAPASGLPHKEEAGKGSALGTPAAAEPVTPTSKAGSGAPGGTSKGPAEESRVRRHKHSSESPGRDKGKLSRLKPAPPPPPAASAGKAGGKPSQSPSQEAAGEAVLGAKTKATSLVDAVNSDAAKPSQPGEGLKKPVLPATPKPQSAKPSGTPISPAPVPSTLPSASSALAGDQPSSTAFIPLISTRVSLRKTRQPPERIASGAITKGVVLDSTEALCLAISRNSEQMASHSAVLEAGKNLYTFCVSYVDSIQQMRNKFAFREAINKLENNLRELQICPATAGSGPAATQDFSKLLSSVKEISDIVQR
# Mitogen-activated protein kinase 7 (Homo sapiens), sequence (Q13164 2-816 limits assumed): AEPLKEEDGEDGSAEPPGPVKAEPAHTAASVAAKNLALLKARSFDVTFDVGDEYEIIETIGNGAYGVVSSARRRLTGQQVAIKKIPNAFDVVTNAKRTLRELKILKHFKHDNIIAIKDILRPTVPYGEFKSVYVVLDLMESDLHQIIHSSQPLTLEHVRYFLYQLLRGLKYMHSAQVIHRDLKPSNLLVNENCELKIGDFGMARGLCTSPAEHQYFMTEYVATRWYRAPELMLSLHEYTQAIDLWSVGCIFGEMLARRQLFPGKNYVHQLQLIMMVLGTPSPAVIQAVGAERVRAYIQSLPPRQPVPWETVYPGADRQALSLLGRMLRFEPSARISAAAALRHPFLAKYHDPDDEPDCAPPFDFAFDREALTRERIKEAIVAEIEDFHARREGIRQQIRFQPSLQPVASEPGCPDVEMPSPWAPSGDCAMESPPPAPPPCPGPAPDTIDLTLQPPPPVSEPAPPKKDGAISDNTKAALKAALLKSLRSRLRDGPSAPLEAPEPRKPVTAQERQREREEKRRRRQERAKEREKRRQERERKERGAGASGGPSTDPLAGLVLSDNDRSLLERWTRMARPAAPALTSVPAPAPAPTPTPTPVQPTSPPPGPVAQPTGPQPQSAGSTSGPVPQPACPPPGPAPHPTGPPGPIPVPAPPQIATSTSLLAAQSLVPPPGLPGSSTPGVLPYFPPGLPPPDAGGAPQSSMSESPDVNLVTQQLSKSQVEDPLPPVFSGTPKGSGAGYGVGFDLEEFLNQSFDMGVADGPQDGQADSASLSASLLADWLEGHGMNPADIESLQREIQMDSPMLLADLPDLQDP
# 5-hydroxytryptamine receptor 2B, sequence (P41595 whole entry): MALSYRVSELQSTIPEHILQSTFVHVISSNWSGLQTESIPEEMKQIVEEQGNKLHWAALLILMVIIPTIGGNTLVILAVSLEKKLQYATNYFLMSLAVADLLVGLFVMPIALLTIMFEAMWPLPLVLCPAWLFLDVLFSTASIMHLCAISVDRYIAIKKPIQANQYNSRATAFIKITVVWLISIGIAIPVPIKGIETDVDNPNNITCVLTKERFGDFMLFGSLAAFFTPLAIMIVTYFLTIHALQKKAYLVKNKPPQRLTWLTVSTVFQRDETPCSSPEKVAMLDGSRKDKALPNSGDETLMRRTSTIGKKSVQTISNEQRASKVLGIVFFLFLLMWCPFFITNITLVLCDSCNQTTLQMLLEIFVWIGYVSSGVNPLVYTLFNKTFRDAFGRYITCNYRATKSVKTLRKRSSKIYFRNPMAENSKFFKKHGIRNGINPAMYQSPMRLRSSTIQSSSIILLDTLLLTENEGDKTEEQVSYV
compound,measurement,setting,value
Cc1cc(C)cc([C@@H]2c3cc(C)ccc3NC(=O)CN2C(=O)c2ccc(Br)s2)c1,% of inhibition,[1],1%
Nc1cnc(N2CCc3cc(S(=O)(=O)Nc4c(F)cc(Cl)cc4F)cc(N4CCCC4=O)c32)nc1 [TP-020n],% of control,[2],100%
N#Cc1cccc(-c2c[nH]c3ncnc(N4CCOCC4)c23)c1,% of inhibition,[3],-53%
Cc1ccc(-c2ccc3c(ccc4sc5c(c43)NC[C@@H](C)NC5=O)n2)cn1,% of inhibition,[4],4%
C=CC(=O)Nc1ccc(C(=O)Nc2[nH]nc3c2CN(C(=O)N[C@H](CN(C)C)c2ccccc2)C3(C)C)cc1,% of engagement,[5],-19.4%
same,% of engagement,[6],-3.1%
COc1cc(N(C)c2ccnc3ccc(C(F)(F)F)cc23)cc(OC)c1OC,% binding,[7],98%
Cc1cnc(Nc2ccc(F)cc2Cl)nc1-c1c[nH]c(C(=O)N[C@H](CO)c2cccc(Cl)c2)c1,% of inhibition,[8],2%
